In patent US20150290192A1, “INHIBITORS OF BRUTON'S TYROSINE KINASE” (HOFFMANN-LA ROCHE INC., priority 2012, published 2015):
Marks after values point to notes of the source that are not given here.

How the values were obtained:
[1] = tested on: OVA sensitized and challenged mice, airway eosinophilia; experiment: Ovalbumin-induced allergic airway disease: allergen-induced airway eosinophilia; format: in vivo, mouse; details: for % reduction in airway eosinophilia: Inhaled, mOVA40
Protocol: The mouse model of ovalbumin-induced allergic airway disease was employed to assess the effects of Compound 1 on allergen-induced bronchoconstriction and allergen-induced airway inflammation. Briefly, mice (male; BALB/c; 7-9 weeks of age) were immunized i.p. with […] of ovalbumin (OVA) in 0.2 ml of Alum (2% Al(OH)3 in water, Serva, Heidelberg, Germany) on days 0 and 14. Control animals received Alum only. On days 21-23, animals were exposed for 20 min to a nebulized (Proneb Ultra II, PARI Respiratory Equipment, Midlothian, Va.,) aerosol of 1% OVA (10 mg/ml) in phosphate-buffered saline (PBS), to establish the inflammatory process within the lung; or PBS alone as a control. For studies where intranasal dosing was used, mice were anesthetized with isoflurane and intranasally (i.n.) administered vehicle (20% propylene glycol) or Compound 1 (0.3 mg/kg) one hour prior to each aerosolized OVA challenge.
For studies using inhalation delivery, Compound 1 was micronized by a jet mill (MC One Jet Mill, Jetpharma USA Inc., South Plainfield, N.J.) and the dry powder aerosol was generated using a Wright dust feed dry powder aerosol generator. The micronized drug powder was packed into a cylindrical reservoir using a hydraulic press at approximately 1000 psi to produce compacted cakes of powder used as input by the Wright dust feed. The dust feed creates and aerosol that is passed through a sonic nozzle for de-agglomeration and into a cyclone to remove non-respirable particles and agglomerates. The cyclone output passed into the TSE nose-only rodent exposure system. Dose groups of mice were exposed to the aerosol test atmosphere for 5, 15, or 45 minutes. […] The particle size distribution for each exposure was evaluated by collecting aerosol samples with an eight stage cascade impactor. […] Impactor data were mathematically evaluated to determine the Mass Median Aerodynamic Diameter (MMAD) and Geometric Standard Deviation (GSD) of 6-tert-Butyl-2-[2-hydroxymethyl-3-(5-{5-[(2-methoxy-ethylamino)-methyl]-pyridin-2-ylamino}-1-methyl-6-oxo-1,6-dihydro-pyridin-3-yl)-phenyl]-3,4-dihydro-2H-isoquinolin-1-one using graphical analysis of an assumed lognormal distribution. The estimated deposited dose of Compound 1 was calculated using a minute volume for the mouse of 0.026 liters per minute and the pulmonary deposition fraction was determined from the MMAD. […]
To study the effects of Compound 1 on airway inflammation, after the three 1% OVA challenges, a final OVA challenge was given as an aerosol solution of 5% OVA in PBS (50 mg/ml) or PBS alone for 20 min. […] The lungs were lavaged and airway inflammation was evaluated as previously described by performing total and differential cell counts [Harris et al., 2012, Mucosal Immunology]. […]

[2] = tested on: mice, poly I:C-induced airway neutrophilia; experiment: Poly I:C induced steroid-resistant airway inflammation (neutrophilia); format: in vivo, mouse; details: for % reduction in airway neutrophilia: Inhaled
Protocol: Compound 1's effects on airway inflammation induced by a synthetic form of double-stranded RNA, polyinosine-polycytidylic acid (Poly I:C) were assessed. […] To perform this experiment, mice (male; BALB/c; 7-9 weeks of age) were anesthetized with isoflurane and intranasally (i.n.) administered saline or poly I:C ([…]) and airway inflammation was evaluated 24 hours later as previously described [Harris et al., 2012, Mucosal Immunology]. Compound 1 inhibited poly I:C-induced airway neutrophilia in a dose-dependent (Table 6). These reductions in neutrophils were consistent with reductions in the levels of neutrophil chemoattractants in the lavage fluid (Table 4).

[3] = Micronization: particle size and polymorphic form; format: physicochemical
Protocol: 10.6 g of compound 1 was micronized in a Jet-O-Mizer jet mill at feed and grinding pressures of 90 psi. The micronized material thus obtained was analyzed by powder X-ray diffraction pattern and particle size distribution as shown in FIGS. 1 and 2 respectively. No change in polymorphic form was observed during the micronization process. Eighty percent of the particles were of size 5 μm or less with a mean particle size (d50%=2.88 μm) in the range suitable for inhalation delivery. The material was used for the in vivo experiment mOVA36.
8.6 g of 2-(6-tert-butyl-8-fluoro-1-oxophthalazin-2(1H)-yl)-4-(1-methyl-5-(5-(1-methylpiperidin-4-yl)pyridin-2-ylamino)-6-oxo-1,6-dihydropyridazin-3-yl)nicotinaldehyde was micronized in a Jet-O-Mizer jet mill at 80 psi. The mean particle size (d50%) was 3.05 μm with 90% particles ≦6 μm (FIG. 3). This material (30% w/w) and lactose (Lactohale LH 300, 70% w/w) were mixed in a Turbula mixer at 22 rpm for 15 minutes. The d50% and d90% particle size of the lactose ingredient were <5 μm and <10 μm, respectively (DFE Pharma specifications (#001/October 2011). The blend thus obtained was used for the in vivo experiment mOVA40, mPolylC-3-12 and mPolylC-5-12. See FIG. 3.

Pharmacokinetics in dog = format: in vivo
[4] = Pharmacokinetics in cynomolgus monkey; format: in vivo; details: Cyno

CN1CCC(c2ccc(Nc3cc(-c4ccnc(-n5ncc6cc(C(C)(C)C)cc(F)c6c5=O)c4CO)nn(C)c3=O)nc2)CC1 [Compound 1, 6-tert-Butyl-8-fluoro-2-{3-hydroxymethyl-4-[1-methyl-5-(1′-methyl-1′,2′,3′,4′,5′,6′-hexahydro-[3,4′]bipyridinyl-6-ylamino)-6-oxo-1,6-dihydro-pyridazin-3-yl]-pyridin-2-yl}-2H-phthalazin-1-one]
% reduction in airway eosinophilia ([1]; delivered dose 0.09 mg/kg, deposited dose .003 mg/kg): 82* %
% reduction in airway eosinophilia ([1]; delivered dose 0.27 mg/kg, deposited dose .010 mg/kg): 83* %
% reduction in airway eosinophilia ([1]; delivered dose 0.81 mg/kg, deposited dose .030 mg/kg): 84* %
OVA-induced increase in the numbers of eosinophils recovered in the lavage fluid ([1]; dry powder formulation by inhalation): effectively inhibited
% reduction in airway neutrophilia ([2]; delivered dose 0.09 mg/kg, deposited dose .003 mg/kg, mPolyIC-3-12): 17%
% reduction in airway neutrophilia ([2]; delivered dose 0.27 mg/kg, deposited dose .010 mg/kg, mPolyIC-3-12): 22%
% reduction in airway neutrophilia ([2]; delivered dose 0.81 mg/kg, deposited dose .030 mg/kg, mPolyIC-3-12): 67* %
% reduction in airway neutrophilia ([2]; delivered dose 8.6 mg/kg, deposited dose 0.3 mg/kg, mPolyIC-5-12): 83* %
poly I:C-induced airway neutrophilia ([2]; dose-dependent): inhibited
levels of neutrophil chemoattractants in the lavage fluid ([2]; mouse, in vivo): reductions
particle size of 90% particles ([3]; micronized at 80 psi, material for mOVA40 and mPolyIC): ≤ 6 μm
particles of size 5 μm or less ([3]; micronized at 90 psi, material for mOVA36): Eighty
mean particle size (d50%) ([3]; micronized in Jet-O-Mizer jet mill at 80 psi, material for mOVA40 and mPolyIC): 3.05 μm
mean particle size (d50%) ([3]; micronized in Jet-O-Mizer jet mill at 90 psi, material for mOVA36): 2.88 μm
change in polymorphic form during the micronization process ([3]; powder X-ray diffraction before and after micronization): No change
CL (Pharmacokinetics in dog; 1.0 mg/kg (iv)): high
Oral Bioavailability (Pharmacokinetics in dog; 1.0 (iv), 1.0 (po) mg/kg): low
clearance (Pharmacokinetics in dog; plasma, 1.0 mg/kg (iv)): 28.3 mL/min/kg
bioavailability (Pharmacokinetics in dog; plasma, 1 mg/kg, 1.0 (iv), 1.0 (po) mg/kg): 1.5%
CL ([4]; 0.3 mg/kg (iv)): high
Oral Bioavailability ([4]; 0.3 (iv), 0.9 (po) mg/kg): low
bioavailability ([4]; cynomolgus monkey, plasma, 0.9 mg/kg, 0.3 (iv), 0.9 (po) mg/kg): 8%
clearance ([4]; cynomolgus monkey, plasma, 0.3 mg/kg (iv)): 38.9 mL/min/kg
